Source: ChEMBL document CHEMBL1208741, “Docking and SAR studies of salacinol derivatives as alpha-glucosidase inhibitors” (Bioorg Med Chem Lett, 2010)

test: Inhibition of alpha glucosidase

pIC50 | Structure (SMILES)
< 3 | O=S(=O)([O-])O[C@@H](CO)CC[S@+]1C[C@@H](O)[C@H](O)[C@H]1CO
< 3 | O=S(=O)([O-])OCCC[S@+]1C[C@@H](O)[C@H](O)[C@H]1CO
< 3 | O=S(=O)([O-])O[C@H](CO)[C@@H](O)C[S@+]1C[C@@H](O)[C@H](O)[C@H]1CO
< 3 | [O-]C[C@@H](O)[C@@H](O)C[S@+]1C[C@@H](O)[C@H](O)[C@H]1CO
3.94 | [O-]CC[C@H](O)C[S@+]1C[C@@H](O)[C@H](O)[C@H]1CO
5.1 | [O-][C@@H](CO)[C@H](O)C[S@+]1C[C@@H](O)[C@H](O)[C@H]1CO [NEOSALACINOL]
5.28 | O=S(=O)([O-])O[C@@H](CO)[C@H](O)C[S@+]1C[C@@H](O)[C@H](O)[C@H]1CO [SALACINOL]
3 | O=S(=O)([O-])OC[C@H](O)C[S@+]1C[C@@H](O)[C@H](O)[C@H]1CO [SALAPRINOL]
